The structures appear in SMILES notation.

Sequence of human PDE4D catalytic domain (Q08499 380-740 limits assumed): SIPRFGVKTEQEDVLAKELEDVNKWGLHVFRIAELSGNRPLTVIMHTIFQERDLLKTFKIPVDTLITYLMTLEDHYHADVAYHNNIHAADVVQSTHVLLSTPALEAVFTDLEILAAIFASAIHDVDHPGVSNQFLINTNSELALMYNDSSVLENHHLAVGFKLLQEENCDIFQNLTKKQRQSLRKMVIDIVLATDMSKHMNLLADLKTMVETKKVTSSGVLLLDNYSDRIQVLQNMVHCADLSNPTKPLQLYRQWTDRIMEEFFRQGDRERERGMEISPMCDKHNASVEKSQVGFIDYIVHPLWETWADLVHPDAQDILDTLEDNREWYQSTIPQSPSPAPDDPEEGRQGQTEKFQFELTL

The test concerns the target human PDE4D catalytic domain (UniProt no. Q08499) (Homo sapiens (Human), UniProt Q08499). As to the kind of experiment: PDE4 assay (TR-FRET, FAM-cAMP cleavage). It is filed as biochemical. The settings on record: read-out: PDE4 IC50 range. The method, boiled down:
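Read-out is time-resolved FRET from Tb donor to FAM-AMP captured on trivalent-metal nanoparticles added to stop the reaction. Substrate was a mix of plain and FAM-labelled cAMP, cleaved by human PDE4D catalytic domain ([…]) with titrated compound; IC50 ranges (nM) versus controls.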
In general terms: In TR-FRET formats the signal depends on donor and acceptor labels being close together.
Regarding `CCc1nn(CC(C)(C)COC(=O)c2ccc(C(=O)NC(C)C)cc2)c2c1C(=O)NCC1(CCOCC1)C2` [Example 332, [3-(3-ethyl-4-oxo-spiro[6,8-dihydro-5H-pyrazolo[4,3-c]azepme-7,4′-tetrahydropyran]-1-yl)-2,2-dimethyl-propyl] 4-(isopropylcarbamoyl)benzoate], the IC50 (usually the concentration that inhibits the measured activity by half) is under 100 nM.
The figure for `CCc1nn(CC(C)(C)COC(=O)c2ccc(C(=O)N3CCCC3)cc2)c2c1C(=O)NCC1(CCOCC1)C2` [Example 333, [3-(3-ethyl-4-oxo-spiro[6,8-dihydro-5H-pyrazolo[4,3-c]azepine-7,4′-tetrahydropyran]-1-yl)-2,2-dimethyl-propyl] 4-(pyrrolidine-1-carbonyl)benzoate] is under 100 nM; for `CCc1nn(CC(C)(C)COC(=O)c2ccc(C(=O)N3CCCCC3)cc2)c2c1C(=O)NCC1(CCOCC1)C2` [Example 334, [3-(3-ethyl-4-oxo-spiro[6,8-dihydro-5H-pyrazolo[4,3-c]azepine-7,4′-tetrahydropyran]-1-yl)-2,2 dimethyl-propyl] 4-(piperidine-1-carbonyl)benzoate] it is under 100 nM.
For the compound `CCc1nn(CC(C)(C)COC(=O)c2ccc(C(=O)N3CCNCC3)cc2)c2c1C(=O)NCC1(CCOCC1)C2` [Example 335, [3-(3-ethyl-4-oxo-spiro[6,8-dihydro-5H-pyrazolo[4,3-c]azepine-7,4′-tetrahydropyran]-1-yl)-2,2-dimethyl-propyl] 4-(piperazine-1-carbonyl)benzoate], the IC50 is under 100 nM.
The figure for `CCc1nn(CC(C)(C)COC(=O)c2ccc(C(=O)N3CCOCC3)cc2)c2c1C(=O)NCC1(CCOCC1)C2` [Example 336, [3-(3-ethyl-4-oxo-spiro[6,8-dihydro-5H-pyrazolo[4,3-c]azepine-7,4′-tetrahydropyran]-1-yl)-2,2-dimethyl-propyl] 4-(morpholine-4-carbonyl)benzoate] is under 100 nM; for `CCc1nn(CC(C)(C)COC(=O)c2ccc(C(=O)N3CCN(C)CC3)cc2)c2c1C(=O)NCC1(CCOCC1)C2` [Example 337, [3-(3-ethyl-4-oxo-spiro[6,8-dihydro-5H-pyrazolo[4,3-c]azepine-7,4′-tetrahydropyran]-1-yl)-2,2-dimethyl-propyl] 4-(4-methylpiperazine-1-carbonyl)benzoate] it is under 100 nM; for `CCc1nn(CC(C)(C)COC(=O)c2ccc(C(=O)N3CCN(C(C)=O)CC3)cc2)c2c1C(=O)NCC1(CCOCC1)C2` [Example 338, [3-(3-ethyl-4-oxo-spiro[6,8-dihydro-5H-pyrazolo[4,3-c]azepine-7,4′-tetrahydropyran]-1-yl)-2,2-dimethyl-propyl] 4-(4-acetylpiperazine-1-carbonyl)benzoate] it is under 100 nM.
The figure for `CCc1nn(CC(C)(C)COC(=O)c2cccc(C(=O)NC)c2)c2c1C(=O)NCC1(CCOCC1)C2` [Example 340, [3-(3-ethyl-4-oxo-spiro[6,8-dihydro-5H-pyrazolo[4,3-c]azepine-7,4′-tetrahydropyran]-1-yl)-2,2-dimethyl-propyl] 3-(methylcarbamoyl)-benzoate] is under 100 nM; for `CCNC(=O)c1cccc(C(=O)OCC(C)(C)Cn2nc(CC)c3c2CC2(CCOCC2)CNC3=O)c1` [Example 341, [3-(3-ethyl-4-oxo-spiro[6,8-dihydro-5H-pyrazolo[4,3-c]azepine-7,4′-tetrahydropyran]-1-yl)-2,2-dimethyl-propyl] 3-(ethylcarbamoyl)-benzoate] it is under 100 nM; for `CCc1nn(CC(C)(C)COC(=O)c2cccc(C(=O)N(C)C)c2)c2c1C(=O)NCC1(CCOCC1)C2` [Example 342, [3-(3-ethyl-4-oxo-spiro[6,8-dihydro-5H-pyrazolo[4,3-c]azepine-7,4′-tetrahydropyran]-1-yl)-2,2-dimethyl-propyl] 3-(dimethylcarbamoyl)-benzoate] it is under 100 nM.
For `CCc1nn(CC(C)(C)COC(=O)c2cccc(C(=O)NC(C)C)c2)c2c1C(=O)NCC1(CCOCC1)C2` [Example 343, [3-(3-ethyl-4-oxo-spiro[6,8-dihydro-5H-pyrazolo[4,3-c]azepine-7,4′-tetrahydropyran]-1-yl)-2,2-dimethyl-propyl] 3-(isopropylcarbamoyl)-benzoate], the IC50 is under 100 nM.
Consider `CCc1nn(CC(C)(C)COC(=O)c2cccc(C(=O)N3CCCC3)c2)c2c1C(=O)NCC1(CCOCC1)C2` [Example 344, [3-(3-ethyl-4-oxo-Spiro[6,8-dihydro-5H-pyrazolo[4,3-c]azepine-7,4′-tetrahydropyran]-1-yl)-2,2-dimethyl-propyl] 3-(pyrrolidine-1-carbonyl)benzoate], for which the IC50 is under 100 nM.
The figure for `CCc1nn(CC(C)(C)COC(=O)c2cccc(C(=O)N3CCCCC3)c2)c2c1C(=O)NCC1(CCOCC1)C2` [Example 345] is under 100 nM.
Take `CCc1nn(CC(C)(C)COC(=O)c2cccc(C(=O)N3CCNCC3)c2)c2c1C(=O)NCC1(CCOCC1)C2` [Example 346, [3-(3-ethyl-4-oxo-spiro[6,8-dihydro-5H-pyrazolo[4,3-c]azepine-7,4′-tetrahydropyran]-1-yl)-2,2-dimethyl-propyl] 3-(piperazine-1-carbonyl)benzoate]: the IC50 was under 100 nM.
The figure for `CCc1nn(CC(C)(C)COC(=O)c2cccc(C(=O)N3CCOCC3)c2)c2c1C(=O)NCC1(CCOCC1)C2` [Example 347, [3-(3-ethyl-4-oxo-spiro[6,8-dihydro-5H-pyrazolo[4,3-c]azepine-7,4′-tetrahydropyran]-1-yl)-2,2-dimethyl-propyl] 3-(morpholine-4-carbonyl)benzoate] is under 100 nM; for `CCc1nn(CC(C)(C)COC(=O)c2cccc(C(=O)N3CCN(C)CC3)c2)c2c1C(=O)NCC1(CCOCC1)C2` [Example 348, [3-(3-ethyl-4-oxo-spiro[6,8-dihydro-5H-pyrazolo[4,3-c]azepine-7,4′-tetrahydropyran]-1-yl)-2,2-dimethyl-propyl] 3-(4-methylpiperazine-1-carbonyl)benzoate] it is under 100 nM; for `CCc1nn(CC(C)(C)COC(=O)c2cccc(C(=O)N3CCN(C(C)=O)CC3)c2)c2c1C(=O)NCC1(CCOCC1)C2` [Example 349, [3-(3-ethyl-4-oxo-spiro[6,8-dihydro-5H-pyrazolo[4,3-c]azepine-7,4′-tetrahydropyran]-1-yl)-2,2-dimethyl-propyl] 3-(4-acetylpiperazine-1-carbonyl)benzoate] it is under 100 nM.
The figure for `CCc1nn(CC2(COC(=O)c3ccc(C)cc3)CC2)c2c1C(=O)NCC1(CCOCC1)C2` [Example 351, [1-[(3-ethyl-4-oxo-spiro[6,8-dihydro-5H-pyrazolo[4,3-c]azepine-7,4′-tetrahydropyran]-1-yl)methyl]cyclopropyl]methyl 4-methylbenzoate] is under 100 nM; for `CCc1nn(CC2(COC(=O)c3cccc(F)c3)CC2)c2c1C(=O)NCC1(CCOCC1)C2` [Example 352, [1-[(3-ethyl-4-oxo-spiro[6,8-dihydro-5H-pyrazolo[4,3-c]azepine-7,4′-tetrahydropyran]-1-yl)methyl]cyclopropyl]methyl 3-fluorobenzoate] it is under 100 nM; for `CCc1nn(CC2(COC(=O)c3cccc(OC)c3)CC2)c2c1C(=O)NCC1(CCOCC1)C2` [Example 354, [1-[(3-ethyl-4-oxo-spiro[6,8-dihydro-5H-pyrazolo[4,3-c]azepine-7,4′-tetrahydropyran]-1-yl)methyl]cyclopropyl]methyl 3-methoxybenzoate] it is under 100 nM.
The figure for `CCc1nn(CC2(COC(=O)c3ccc(Cl)cc3)CC2)c2c1C(=O)NCC1(CCOCC1)C2` [Example 355, [1-[(3-ethyl-4-oxo-spiro[6,8 dihydro-5H-pyrazolo[4,3-c]azepine-7,4′-letrahydropyran]-1-yl)methyl]cyclopropyl]methyl 4-chlorobenzoate] is under 100 nM; for `CCc1nn(CC2(COC(=O)c3ccccc3)COC2)c2c1C(=O)NCC1(CCOCC1)C2` [Example 356, [3-[(3-ethyl-4-oxo-spiro[6,8-dihydro-5H-pyrazolo[4,3-c]azepine-7,4′-tetrahydropyran]-1-yl)methyl]oxetan-3-yl]methyl benzoate] it is under 100 nM.
As for `CCc1nn(CC2(COC(=O)c3ccc(C)cc3)COC2)c2c1C(=O)NCC1(CCOCC1)C2` [Example 357, [3-[(3-ethyl-4-oxo-spiro[6,8-dihydro-5H-pyrazolo[4,3-c]azepine-7,4′-tetrahydropyran]-1-yl)methyl]oxetan-3-yl]methyl 4-methylbenzoate], the half-maximal inhibitory concentration (IC50) was under 100 nM.
The figure for `CCc1nn(CC2(COC(=O)c3cccc(F)c3)COC2)c2c1C(=O)NCC1(CCOCC1)C2` [Example 358, [3-[(3-ethyl-4-oxo-spiro[6,8-dihydro-5H-pyrazolo[4,3-c]azepine-7,4′-tetrahydropyran]-1-yl)methyl]oxetan-3-yl]methyl 3-fluorobenzoate] is under 100 nM; for `CCc1nn(CC2(COC(=O)c3ccc(F)cc3)COC2)c2c1C(=O)NCC1(CCOCC1)C2` [Example 359, [3-[(3-ethyl-4-oxo-spiro[6,8-dihydro-5H-pyrazolo[4,3-c]azepine-7,4′-tetrahydropyran]-1-yl)methyl]oxetan-3-yl]methyl 4-fluorobenzoate] it is under 100 nM; for `CCc1nn(CC2(COC(=O)c3cccc(OC)c3)COC2)c2c1C(=O)NCC1(CCOCC1)C2` [Example 360, [3-[(3-ethyl-4-oxo-spiro[6,8-dihydro-5H-pyrazolo[4,3-c]azepine-7,4′-tetrahydropyran]-1-yl)methyl]oxetan-3-yl]methyl 3-methoxybenzoate] it is under 100 nM.
For the compound `CCc1nn(CC2(COC(=O)c3ccc(Cl)cc3)COC2)c2c1C(=O)NCC1(CCOCC1)C2` [Example 361, [3-[(3-ethyl-4-oxo-spiro[6,8-dihydro-5H-pyrazolo[4,3-c]azepine-7,4′-tetrahydropyran]-1-yl)methyl]oxetan-3-yl]methyl 4-chlorobenzoate], the IC50 is under 100 nM.
The figure for `CCc1nn(C(C)CCOC(=O)c2ccccc2)c2c1C(=O)NCC1(CCOCC1)C2` (stereo not shown) [Example 362, 3-(3-ethyl-4-oxo-spiro[6,8-dihydro-5H-pyrazolo[4,3-c]azepine-7,4′-tetrahydropyran]-1-yl)butyl benzoate] is under 100 nM.

These data come from patent US10906915B2, “Substituted pyrazoloazepin-4-ones and their use as phosphodiesterase inhibitors” (LEO Pharma A/S, priority 2016, dated 2021).
